The target in one test is T1, Gal-1 (Homo sapiens, UniProt P09382).
T1 construct: made in house; host or cells: E. coli BL21(DE3)
The experiment in a line: Pull-down assay with immobilized protein and LSM libraries. The class given is binding. As to conditions: H12 library; 1:1 binding assumed; read-out: Surface mapping KD (apparent). A digest of the protocol: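 His-tagged protein immobilized on Co-NTA resin (64 µM) in 20 mM HEPES pH 7.4, 150 mM NaCl, equilibrated 30 min at room temperature with foldamer LSM sublibraries at equimolar total concentration. Unbound fractions quantified by HPLC-MS versus protein-free resin control; apparent KD assumes 1:1 binding.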

The target in the next test is T2, S100B (Homo sapiens, UniProt P04271).
T2 construct: made in house; host or cells: Escherichia coli BL21(DE3)
T2 sequence (P04271 1-92): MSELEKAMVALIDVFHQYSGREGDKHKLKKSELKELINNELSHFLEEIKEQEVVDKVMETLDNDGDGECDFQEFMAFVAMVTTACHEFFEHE
Described as above. To be noted: 1:1 binding assumed, read-out: Surface mapping KD (apparent). The class given is binding. A digest of the protocol: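 Buffers were HEPES pH 7.4 with 150 mM NaCl, plus 1 mM TCEP and 1 mM CaCl2 (50 mM HEPES) for S100A4 and S100B, 1 mM TCEP for Gal-1, and no additive for RecQ-WH. Immobilized protein at 64 µM was equilibrated 30 min with the LSM sublibrary, and unbound probes were measured by LC-MS.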

Like-named read-outs stand apart in the source and are kept apart here.

We go through 28 compounds from publication PMC8162404, “Proteomimetic surface fragments distinguish targets by function” (Chemical Science, 2020).

T1 sequence (P09382 whole entry): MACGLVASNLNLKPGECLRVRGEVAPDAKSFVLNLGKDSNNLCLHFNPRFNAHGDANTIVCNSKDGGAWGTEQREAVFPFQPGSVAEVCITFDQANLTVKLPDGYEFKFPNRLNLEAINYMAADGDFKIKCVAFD

As for `C[C@@H](CC(=O)N[C@H]1CCC[C@@H]1C(=O)N[C@H]1CCC[C@@H]1C(=O)N[C@H](CC(=O)N[C@H]1CCC[C@@H]1C(=O)N[C@H]1CCC[C@@H]1C(N)=O)Cc1ccccc1)NC(=O)[C@H]1CCC[C@@H]1NC(=O)[C@H]1CCC[C@@H]1N` [H12 AF], the Kd at Gal-1 is 428 µM; at S100B (H12 library), 114 µM.
As for `CC[C@H](C)[C@@H](CC(=O)N[C@H]1CCC[C@@H]1C(=O)N[C@H]1CCC[C@@H]1C(N)=O)NC(=O)[C@H]1CCC[C@@H]1NC(=O)[C@H]1CCC[C@@H]1NC(=O)C[C@H](C)NC(=O)[C@H]1CCC[C@@H]1NC(=O)[C@H]1CCC[C@@H]1N` [H12 AI], the Kd stood at 436 µM on Gal-1 and 348 µM at S100B (H12 library).
For `C[C@@H](CC(=O)N[C@H]1CCC[C@@H]1C(=O)N[C@H]1CCC[C@@H]1C(=O)N[C@@H](CCCCN)CC(=O)N[C@H]1CCC[C@@H]1C(=O)N[C@H]1CCC[C@@H]1C(N)=O)NC(=O)[C@H]1CCC[C@@H]1NC(=O)[C@H]1CCC[C@@H]1N` [H12 AK] the same measures were 303 µM and 380 µM.
Take `CC(C)C[C@@H](CC(=O)N[C@H]1CCC[C@@H]1C(=O)N[C@H]1CCC[C@@H]1C(N)=O)NC(=O)[C@H]1CCC[C@@H]1NC(=O)[C@H]1CCC[C@@H]1NC(=O)C[C@H](C)NC(=O)[C@H]1CCC[C@@H]1NC(=O)[C@H]1CCC[C@@H]1N` [H12 AL]: the Kd at Gal-1 was 436 µM; on S100B (H12 library) it was 348 µM.
In the case of `C[C@@H](CC(=O)N[C@H]1CCC[C@@H]1C(=O)N[C@H]1CCC[C@@H]1C(=O)N[C@H](CC(=O)N[C@H]1CCC[C@@H]1C(=O)N[C@H]1CCC[C@@H]1C(N)=O)Cc1ccc(O)cc1)NC(=O)[C@H]1CCC[C@@H]1NC(=O)[C@H]1CCC[C@@H]1N` [H12 AY], the Kd on Gal-1 was determined as 422 µM; on S100B (H12 library) it was 318 µM.
As for `NC(=O)[C@H]1CCC[C@@H]1NC(=O)[C@H]1CCC[C@@H]1NC(=O)C[C@H](CC(=O)O)NC(=O)[C@H]1CCC[C@@H]1NC(=O)[C@H]1CCC[C@@H]1NC(=O)C[C@H](Cc1ccccc1)NC(=O)[C@H]1CCC[C@@H]1NC(=O)[C@H]1CCC[C@@H]1N` [H12 FD], the Kd at Gal-1 came to 251 µM; on S100B (H12 library), 371 µM.
The like results for `NC(=O)[C@H]1CCC[C@@H]1NC(=O)[C@H]1CCC[C@@H]1NC(=O)C[C@H](CCC(=O)O)NC(=O)[C@H]1CCC[C@@H]1NC(=O)[C@H]1CCC[C@@H]1NC(=O)C[C@H](Cc1ccccc1)NC(=O)[C@H]1CCC[C@@H]1NC(=O)[C@H]1CCC[C@@H]1N` [H12 FE] were, in that order, 198 µM and 391 µM.
`NC(=O)C[C@@H](CC(=O)N[C@H]1CCC[C@@H]1C(=O)N[C@H]1CCC[C@@H]1C(N)=O)NC(=O)[C@H]1CCC[C@@H]1NC(=O)[C@H]1CCC[C@@H]1NC(=O)C[C@H](Cc1ccccc1)NC(=O)[C@H]1CCC[C@@H]1NC(=O)[C@H]1CCC[C@@H]1N` [H12 FN]: the values for the Kd at Gal-1 and at S100B (H12 library) were 226 µM and 109 µM, respectively.
Turning to `NC(=O)CC[C@@H](CC(=O)N[C@H]1CCC[C@@H]1C(=O)N[C@H]1CCC[C@@H]1C(N)=O)NC(=O)[C@H]1CCC[C@@H]1NC(=O)[C@H]1CCC[C@@H]1NC(=O)C[C@H](Cc1ccccc1)NC(=O)[C@H]1CCC[C@@H]1NC(=O)[C@H]1CCC[C@@H]1N` [H12 FQ], the results for the Kd on Gal-1 and at S100B (H12 library) were 208 µM and 104 µM, respectively.
For `NC(=O)[C@H]1CCC[C@@H]1NC(=O)[C@H]1CCC[C@@H]1NC(=O)C[C@H](CO)NC(=O)[C@H]1CCC[C@@H]1NC(=O)[C@H]1CCC[C@@H]1NC(=O)C[C@H](Cc1ccccc1)NC(=O)[C@H]1CCC[C@@H]1NC(=O)[C@H]1CCC[C@@H]1N` [H12 FS] the same measures were 268 µM and 310 µM.
Turning to `C[C@@H](O)[C@@H](CC(=O)N[C@H]1CCC[C@@H]1C(=O)N[C@H]1CCC[C@@H]1C(N)=O)NC(=O)[C@H]1CCC[C@@H]1NC(=O)[C@H]1CCC[C@@H]1NC(=O)C[C@H](Cc1ccccc1)NC(=O)[C@H]1CCC[C@@H]1NC(=O)[C@H]1CCC[C@@H]1N` [H12 FT], the Kd on Gal-1 is 254 µM; on S100B (H12 library), 86 µM.
Turning to `CC[C@H](C)[C@@H](CC(=O)N[C@H]1CCC[C@@H]1C(=O)N[C@H]1CCC[C@@H]1C(=O)N[C@@H](C)CC(=O)N[C@H]1CCC[C@@H]1C(=O)N[C@H]1CCC[C@@H]1C(N)=O)NC(=O)[C@H]1CCC[C@@H]1NC(=O)[C@H]1CCC[C@@H]1N` [H12 IA], the Kd on Gal-1 stood at 469 µM; at S100B (H12 library), 254 µM.
In the case of `CC[C@H](C)[C@@H](CC(=O)N[C@H]1CCC[C@@H]1C(=O)N[C@H]1CCC[C@@H]1C(=O)N[C@@H](CO)CC(=O)N[C@H]1CCC[C@@H]1C(=O)N[C@H]1CCC[C@@H]1C(N)=O)NC(=O)[C@H]1CCC[C@@H]1NC(=O)[C@H]1CCC[C@@H]1N` [H12 IS], the values for the Kd at Gal-1 and on S100B (H12 library) were 485 µM and 360 µM, respectively.
For `NCCCC[C@@H](CC(=O)N[C@H]1CCC[C@@H]1C(=O)N[C@H]1CCC[C@@H]1C(=O)N[C@@H](CC(=O)O)CC(=O)N[C@H]1CCC[C@@H]1C(=O)N[C@H]1CCC[C@@H]1C(N)=O)NC(=O)[C@H]1CCC[C@@H]1NC(=O)[C@H]1CCC[C@@H]1N` [H12 KD], the values for the Kd on Gal-1 and at S100B (H12 library) were 289 µM and 149 µM, respectively.
`NCCCC[C@@H](CC(=O)N[C@H]1CCC[C@@H]1C(=O)N[C@H]1CCC[C@@H]1C(N)=O)NC(=O)[C@H]1CCC[C@@H]1NC(=O)[C@H]1CCC[C@@H]1NC(=O)C[C@H](CCCCN)NC(=O)[C@H]1CCC[C@@H]1NC(=O)[C@H]1CCC[C@@H]1N` [H12 KK]: the values for the Kd on Gal-1 and at S100B (H12 library) were 230 µM and 177 µM, respectively.
For the compound `CSCC[C@@H](CC(=O)N[C@H]1CCC[C@@H]1C(=O)N[C@H]1CCC[C@@H]1C(N)=O)NC(=O)[C@H]1CCC[C@@H]1NC(=O)[C@H]1CCC[C@@H]1NC(=O)C[C@H](CCCCN)NC(=O)[C@H]1CCC[C@@H]1NC(=O)[C@H]1CCC[C@@H]1N` [H12 KM], the figures for the Kd on Gal-1 and at S100B (H12 library) were 282 µM and 153 µM, respectively.
For `NCCCC[C@@H](CC(=O)N[C@H]1CCC[C@@H]1C(=O)N[C@H]1CCC[C@@H]1C(=O)N[C@@H](CCC(N)=O)CC(=O)N[C@H]1CCC[C@@H]1C(=O)N[C@H]1CCC[C@@H]1C(N)=O)NC(=O)[C@H]1CCC[C@@H]1NC(=O)[C@H]1CCC[C@@H]1N` [H12 KQ], the Kd was found to be 293 µM at Gal-1 and 300 µM at S100B (H12 library).
For `NCCCC[C@@H](CC(=O)N[C@H]1CCC[C@@H]1C(=O)N[C@H]1CCC[C@@H]1C(=O)N[C@@H](CO)CC(=O)N[C@H]1CCC[C@@H]1C(=O)N[C@H]1CCC[C@@H]1C(N)=O)NC(=O)[C@H]1CCC[C@@H]1NC(=O)[C@H]1CCC[C@@H]1N` [H12 KS] the same measures were 298 µM and 224 µM.
Take `CC(C)[C@@H](CC(=O)N[C@H]1CCC[C@@H]1C(=O)N[C@H]1CCC[C@@H]1C(N)=O)NC(=O)[C@H]1CCC[C@@H]1NC(=O)[C@H]1CCC[C@@H]1NC(=O)C[C@H](CCCCN)NC(=O)[C@H]1CCC[C@@H]1NC(=O)[C@H]1CCC[C@@H]1N` [H12 KV]: the Kd came out at 221 µM on Gal-1 and 193 µM on S100B (H12 library).
For `NCCCC[C@@H](CC(=O)N[C@H]1CCC[C@@H]1C(=O)N[C@H]1CCC[C@@H]1C(=O)N[C@H](CC(=O)N[C@H]1CCC[C@@H]1C(=O)N[C@H]1CCC[C@@H]1C(N)=O)Cc1ccc(O)cc1)NC(=O)[C@H]1CCC[C@@H]1NC(=O)[C@H]1CCC[C@@H]1N` [H12 KY], the Kd on Gal-1 was 227 µM; at S100B (H12 library), 138 µM.
With `N=C(N)NCCC[C@@H](CC(=O)N[C@H]1CCC[C@@H]1C(=O)N[C@H]1CCC[C@@H]1C(=O)N[C@@H](CCC(N)=O)CC(=O)N[C@H]1CCC[C@@H]1C(=O)N[C@H]1CCC[C@@H]1C(N)=O)NC(=O)[C@H]1CCC[C@@H]1NC(=O)[C@H]1CCC[C@@H]1N` [H12 RQ], the Kd at S100B (H12 library) was 210 µM.
As for `NCCCC[C@@H](CC(=O)N[C@H]1CCC[C@@H]1C(=O)N[C@H]1CCC[C@@H]1C(N)=O)NC(=O)[C@H]1CCC[C@@H]1NC(=O)[C@H]1CCC[C@@H]1NC(=O)C[C@H](CO)NC(=O)[C@H]1CCC[C@@H]1NC(=O)[C@H]1CCC[C@@H]1N` [H12 SK], the Kd at S100B (H12 library) amounted to 401 µM.
`C[C@@H](O)[C@@H](CC(=O)N[C@H]1CCC[C@@H]1C(=O)N[C@H]1CCC[C@@H]1C(=O)N[C@@H](CCCCN)CC(=O)N[C@H]1CCC[C@@H]1C(=O)N[C@H]1CCC[C@@H]1C(N)=O)NC(=O)[C@H]1CCC[C@@H]1NC(=O)[C@H]1CCC[C@@H]1N` [H12 TK]: at S100B (H12 library), the Kd was 253 µM.
Take `N=C(N)NCCC[C@@H](CC(=O)N[C@H]1CCCC[C@@H]1C(N)=O)NC(=O)[C@H]1CCCC[C@@H]1NC(=O)[C@H]1CCCC[C@@H]1NC(=O)C[C@H](CC(=O)O)NC(=O)[C@H]1CCCC[C@@H]1N` [H14 DR]: at S100B (H14 library), the Kd worked out at 193 µM.
`NC(=O)[C@H]1CCCC[C@@H]1NC(=O)C[C@H](Cc1ccc(O)cc1)NC(=O)[C@H]1CCCC[C@@H]1NC(=O)[C@H]1CCCC[C@@H]1NC(=O)C[C@H](CC(=O)O)NC(=O)[C@H]1CCCC[C@@H]1N` [H14 DY]: the Kd at S100B (H14 library) was determined as 461 µM.
Consider `NCCCC[C@@H](CC(=O)N[C@H]1CCCC[C@@H]1C(N)=O)NC(=O)[C@H]1CCCC[C@@H]1NC(=O)[C@H]1CCCC[C@@H]1NC(=O)C[C@H](CCC(=O)O)NC(=O)[C@H]1CCCC[C@@H]1N` [H14 EK], for which the Kd on S100B (H14 library) worked out at 324 µM.
As to `N=C(N)NCCC[C@@H](CC(=O)N[C@H]1CCCC[C@@H]1C(N)=O)NC(=O)[C@H]1CCCC[C@@H]1NC(=O)[C@H]1CCCC[C@@H]1NC(=O)C[C@H](CCC(=O)O)NC(=O)[C@H]1CCCC[C@@H]1N` [H14 ER], the Kd at S100B (H14 library) amounted to 349 µM.
Turning to `NCCCC[C@@H](CC(=O)N[C@H]1CCCC[C@@H]1C(=O)N[C@H]1CCCC[C@@H]1C(=O)N[C@@H](CCC(=O)O)CC(=O)N[C@H]1CCCC[C@@H]1C(N)=O)NC(=O)[C@H]1CCCC[C@@H]1N` [H14 KE], the Kd at S100B (H14 library) turned out to be 324 µM.
